From publication PMC4505445 (The Journal of Biological Chemistry, 2015)
Structures can show the parent of a compound that is named as a salt.

molecular target: T1, human prion protein 23–231 (PrP, unlabeled wild type) (Homo sapiens, UniProt P04156); assay: biochemical; assay type: binding
T1 construct: gene PRNP

Compound | IC50
O=C1c2c(O)cccc2Cc2cccc(O)c21 [Anthralin] | > 100 µM
CC(C)/N=c1\cc2n(-c3ccc(Cl)cc3)c3ccccc3nc-2cc1Nc1ccc(Cl)cc1 [Clofazimine] | > 100 µM
C[C@@H]1[C@H](O)[C@@H](C)/C=C/C=C/C=C/C=C/C=C/C=C/C=C/[C@H](O[C@@H]2O[C@H](C)[C@@H](O)[C@H](N)[C@@H]2O)C[C@@H]2O[C@](O)(C[C@@H](O)C[C@@H](O)[C@H](O)CC[C@@H](O)C[C@@H](O)CC(=O)O[C@H]1C)C[C@H](O)[C@H]2C(=O)O [Amphotericin B] | 88.8 µM
NC(CO)C(=O)NNCc1ccc(O)c(O)c1O (stereo not shown) [Benserazide HCl] | > 100 µM
CC[N+](C)(CC)CCC[n+]1c(-c2ccccc2)c2cc(N)ccc2c2ccc(N)cc21 [Propidium iodide] | > 100 µM
COc1cc(C(=O)NS(=O)(=O)c2ccccc2C)ccc1Cc1cn(C)c2ccc(NC(=O)OC3CCCC3)cc12 [Zafirlukast] | 85.7 µM

molecular target: T2, human prion protein 91–231 (Homo sapiens, UniProt P04156); assay: biochemical; assay type: binding
T2 construct: gene PRNP

Compound | Kd
COc1cc(-c2ccc(N=Nc3ccc4c(S(=O)(=O)O)cc(S(=O)(=O)O)c(N)c4c3O)c(OC)c2)ccc1N=Nc1ccc2c(S(=O)(=O)O)cc(S(=O)(=O)O)c(N)c2c1O [Chicago Sky Blue 6B] | 1.43 ± 0.24 µM
